Experimental data taken from ChEMBL document CHEMBL4390646, “A fragment-based approach towards the discovery of N-substituted tropinones as inhibitors of Mycobacterium tuberculosis transcriptional regulator EthR2” (Eur J Med Chem, 2019).
The source made the active and inactive calls. No cut-off for these calls is given here.

Columns and labels:
[1] = Inhibition of recombinant Mycobacterium tuberculosis EthR2 expressed in golden hamster BHK21 cells assessed as reduction in EthR2 and DNA interaction measured after 48 hrs by p-nitrophenyl phosphate based SEAP reporter gene assay; format: cell-based
[2] = test system: Mycobacterium tuberculosis; assay: Binding affinity to recombinant Mycobacterium tuberculosis EthR2 assessed as change in melting temperature at 1 mM by Nano Orange dye based fluorescence thermal shift assay
[3] = test system: Mycobacterium tuberculosis; assay: Binding affinity to recombinant Mycobacterium tuberculosis EthR2 assessed as change in melting temperature at 20 uM by SYPRO Orange dye based fluorescence thermal shift assay
[4] = test system: Mycobacterium tuberculosis; assay: Inhibition of EthR2 in Mycobacterium tuberculosis assessed as potentiation of ETH bioactivation up to 30 uM using 0.1 ug/ml ETH
[5] = biological target: HTH-type transcriptional regulator EthR (Mycobacterium tuberculosis) (UniProt P9WMC1); assay: Binding affinity to Mycobacterium tuberculosis EthR at 30 uM by mammalian reporter assay
HTH-type transcriptional regulator EthR (Mycobacterium tuberculosis), sequence (P9WMC1 whole entry): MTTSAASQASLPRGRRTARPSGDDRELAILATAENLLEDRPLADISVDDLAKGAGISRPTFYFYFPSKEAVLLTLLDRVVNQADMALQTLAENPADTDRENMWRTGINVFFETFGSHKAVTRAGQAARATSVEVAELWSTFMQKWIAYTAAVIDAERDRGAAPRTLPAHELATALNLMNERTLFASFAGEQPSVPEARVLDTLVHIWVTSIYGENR

Row | Structure (SMILES) | pIC50 [1] | ΔTm [2] [°C] | ΔTm [3] [°C] | Activity [4] | Activity [5]
1 | CC(C)Sc1nc2[nH]cnc(N)c-2n1 | 5.1 | 2.5 | – | – | –
2 | O=C1CC2CCCC(C1)N2CCc1ccc(Cl)cc1 | 5.8 | – | 0.6 | inactive | –
3 | O=C1C2CCCC1CN(CCc1ccc(Cl)cc1)C2 | – | – | -0.1 | – | –
4 | Cc1ccc(CCN2C3CCC2CC(=O)C3)cc1 | 5.8 | – | 0.6 | inactive | –
5 | O=C1CC2CCC(C1)N2CCc1cccc(C(F)(F)F)c1 | – | – | -0.1 | – | –
6 | COc1ccc(CCN2C3CCC2CC(=O)C3)cc1 | – | – | 0.3 | – | –
7 | O=C1CC2CCC(C1)N2CCc1ccc([N+](=O)[O-])cc1 | – | – | -0.2 | – | –
8 | O=C1CC2CCC(C1)N2CCc1ccc(Br)cc1 | 6.1 | – | 1 | inactive | –
9 | O=C1CC2CCC(C1)N2Cc1ccc(Cl)cc1 | – | – | 0 | – | –
10 | CC(Cc1ccc(Cl)cc1)N1C2CCC1CC(=O)C2 (stereo not drawn) | – | – | 0.1 | – | –
11 | O=C1CC2CCC(C1)N2C(=O)Cc1ccc(Cl)cc1 | – | – | -0.1 | – | –
12 | O=C1CC2CCC(C1)N2CCc1ccc(Cl)cc1Cl | 5.7 | – | 0.2 | – | –
13 | O=C1CC2CCC(C1)N2CCc1ccccc1C(F)(F)F | – | – | 0.3 | – | –
14 | Clc1cccc(CN2CCNCC2)c1 | 5.5 | 3.1 | – | – | –
15 | CCCNC(=O)Nc1cccc(C)n1 | < 4 | 2.2 | – | – | –
16 | O=C1CC2CCC(C1)N2CCc1ccc(C(F)(F)F)cc1 | 6.7 | – | 1.8 | inactive | –
17 | N=C(N)Nc1nc2ccccc2s1 | < 4 | 2.8 | – | – | –
18 | O=C1CC2CCC(C1)N2CCc1ccc(Cl)c(Cl)c1 | 6 | – | 1 | inactive | –
19 | O=C1C2CCC1CN(CCc1ccc(Cl)cc1)C2 | – | – | 0.1 | – | –
20 | O=C1CC2CCC(C1)N2CCc1ccc(Cl)cc1 | 6 | 3.4 | 0.6 | inactive | inactive
21 | Clc1ccc(CCN2C3CCC2CC2(C3)OCCO2)cc1 | < 4.8 | – | 0.1 | – | –
22 | COC1(OC)CC2CCC(C1)N2CCc1ccc(Cl)cc1 | < 4.8 | – | 0.2 | – | –
23 | O=C1CC2CCC(C1)N2CCc1ccc(F)cc1 | 5.6 | – | 0.4 | inactive | –
24 | O=C1CC2CCC(C1)N2CCc1ccccc1 | 5 | – | 0.1 | inactive | –
25 | FC(F)=C1CC2CCC(C1)N2CCc1ccc(Cl)cc1 | < 4.8 | – | 0.6 | – | –
26 | O=C1CC2CCC(C1)N2CCc1ccncc1 | – | – | 0 | inactive | –
